Experimental data reported in ChEMBL document CHEMBL5223120 (Bioorg Med Chem Lett, 2022).

Tests used:
Format in all cases: ADME, organism-based
Conditions in all cases: in vivo
[1] = Cmax in mouse at 10 mg/kg, po by WinNonlin non-compartmental analysis; set-up: dose 10 mg/kg, route po
[2] = Oral bioavailability in mouse at 10 mg/kg by WinNonlin non-compartmental analysis
[3] = AUC in mouse at 10 mg/kg, po by WinNonlin non-compartmental analysis; set-up: dose 10 mg/kg, route po

Structure (SMILES)	Cmax [1] [nM]	bioavailability [2] [%]	AUC ([3]; read-out: AUC) [µM·h]	F ([2]; po, 10 mg/kg) [%]	AUC [3] [µM·h]
CC(C)c1cnc(-c2cc(Cl)ccc2F)cc1Nc1ccncc1C(=O)NCCN	200	16	0.93	–	–
CC(C)c1cnc(-c2cc(Cl)ccc2F)cc1Nc1ccncc1C(=O)N[C@@H](C)CO	1570	–	–	88	5.25
CC(C)c1cnc(-c2cc(Cl)ccc2F)cc1Nc1ccncc1C(=O)NC[C@H](C)O	1880	33	2.54	–	–
CC(C)c1cnc(-c2cc(Cl)ccc2F)cc1Nc1ccncc1C(=O)NCC(N)=O	990	38	1.47	–	–
CC(C)c1cnc(-c2cc(Cl)ccc2F)cc1Nc1ccncc1C(=O)NC(CO)CO [PF-06952229]	7070	87	16.2	–	–
